One molecule from patent US12492195B2, “Preparation method for and crystal form of 3-aryloxy-3-five-membered heteroaryl-propylamine compound” (Zhangzhou Pien Tze Huang Pharmaceutical Co., Ltd., priority 2020, dated 2025) can be followed below.

The target in assay [1] is T1, TRPM8 (Homo sapiens, UniProt Q7Z2W7).
T1 construct: expressed in transfected cells
Nature of the assay: Manual patch clamp detection on TRPM8 channel. Format: cell-based. The method, then:
TRPM8 cells were cultured in a cell culture dish with a diameter of 35 mm, placed in an incubator in 5% CO2 at 37° C., and passaged at a ratio of 1:5 every 48 hours. The formula of medium was 90% DMEM (Invitrogen), 10% fetal bovine serum (Gibco), 2 mM L-glutamine, 50 μg/mL Hygromycin B (Invitrogen) and 5 μg/mL Blasticidine HCl (Invitrogen). Before electrophysiological patch clamp experiment, the cell culture medium was replaced with medium containing 1 μg/mL doxycycline for at least 16 hours to induce TRPM8 expression.
On the day of the experiment, the cell culture medium was aspirated, the cell were rinsed once with extracellular fluid, and then 0.25% Trypsin-EDTA (Invitrogen) solution was added, and digested at room temperature for 1-2 minutes. The digestion solution was aspirated, the cell were resuspended with extracellular fluid, and transferred to the experimental dish for electrophysiological recording for further experiment.
Preparation of menthol: 100.00 mM of DMSO stock solution of menthol was added to the extracellular solution, diluting 1000-fold to 100.00 μM of menthol solution.
Preparation of AMTB: 5 μL of DMSO stock solution (20.00 mM) of AMTB was added to 4995 μL of menthol solution (100.00 uM), diluting 1000-fold to obtain the final concentration of 20.00 μM AMTB to be tested.
Preparation of IC-1: 20.00 mM or 10.00 mM of stock solution of IC-1 was taken and added to the agonist solution of the corresponding channel, diluting 1000 or 2000-fold to the final concentration of 10.00 μM of […] solution to be tested.
(§1) HEK293 cells stably expressing TRP channels, the corresponding agonist-induced channel current was recorded by whole-cell patch clamp technique at room temperature. […] Clamp voltages and data recording were controlled and recorded by a computer using pClamp 11 software with the sampling frequency of 10 kHz and the filtering frequency of 2 kHz. […] After the current was evoked for more than 40 s and no attenuation was determined, the dosing process started. […]

The target of assay [2] is T2, TRPV4 (Homo sapiens, UniProt Q9HBA0).
T2 construct: expressed in transfected cells
T2 sequence (Q9HBA0 whole entry, species assumed): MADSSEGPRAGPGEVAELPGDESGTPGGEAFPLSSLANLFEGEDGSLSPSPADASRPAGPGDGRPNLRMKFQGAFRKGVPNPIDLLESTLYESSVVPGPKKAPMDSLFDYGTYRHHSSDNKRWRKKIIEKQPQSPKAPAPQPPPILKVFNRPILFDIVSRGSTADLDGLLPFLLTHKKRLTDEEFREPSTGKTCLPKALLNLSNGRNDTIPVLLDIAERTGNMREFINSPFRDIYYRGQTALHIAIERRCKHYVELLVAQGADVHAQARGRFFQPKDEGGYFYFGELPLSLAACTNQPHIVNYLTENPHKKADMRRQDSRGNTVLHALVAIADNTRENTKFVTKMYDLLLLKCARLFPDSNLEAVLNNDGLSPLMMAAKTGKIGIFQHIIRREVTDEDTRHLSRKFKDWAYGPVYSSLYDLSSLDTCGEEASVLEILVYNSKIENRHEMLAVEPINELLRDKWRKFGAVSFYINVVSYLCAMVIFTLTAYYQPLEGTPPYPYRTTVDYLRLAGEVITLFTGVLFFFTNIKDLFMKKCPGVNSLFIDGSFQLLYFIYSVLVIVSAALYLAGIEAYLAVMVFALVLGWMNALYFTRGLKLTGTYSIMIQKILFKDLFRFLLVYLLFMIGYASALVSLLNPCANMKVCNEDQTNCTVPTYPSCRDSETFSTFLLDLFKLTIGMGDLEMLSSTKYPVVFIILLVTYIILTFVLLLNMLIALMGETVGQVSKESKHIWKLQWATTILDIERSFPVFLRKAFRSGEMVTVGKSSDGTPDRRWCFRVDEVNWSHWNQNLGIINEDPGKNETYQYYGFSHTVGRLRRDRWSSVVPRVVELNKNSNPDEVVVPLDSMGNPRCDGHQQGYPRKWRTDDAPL
Description: Manual patch clamp detection on TRPV4 channel. Particulars: 10.00 μM, HEK293, GSK1016790A-induced current. Format: cell-based. The method, then: TRPV4 cells were cultured in a cell culture dish with a diameter of 35 mm, placed in an incubator in 5% CO2 at 37° C., and passaged at a ratio of 1:5 every 48 hours. The formula of medium was 90% DMEM (Invitrogen), 10% fetal bovine serum (Gibco), 2 mM L-glutamine, 50 μg/mL Hygromycin B (Invitrogen) and 5 μg/mL Blasticidine HCl (Invitrogen). Before electrophysiological patch clamp experiment, the cell culture medium was replaced with medium containing 1 μg/mL doxycycline for at least 16 hours to induce the expression of TRPV4.
On the day of the experiment, the cell culture medium was aspirated, the cell were rinsed once with extracellular fluid, and then 0.25% Trypsin-EDTA (Invitrogen) solution was added, and digested at room temperature for 1-2 minutes. The digestion solution was aspirated, the cell were resuspended with extracellular fluid, and transferred to the experimental dish for electrophysiological recording for further experiment. […]
as §1

Assay [3] concerns SD rats. Description: SNL model in rats, mechanical hyperalgesia test. Format: in vivo. Particulars: 10 mg/kg by gavage, 1 hour after administration. The method, then: Male SPF grade SD rats, weighed 150-180 g, were selected. Aseptic operation during surgery was performed. The animals were anesthetized with sodium pentobarbital (50 mg/kg, intraperitoneal injection). The surgical area of animal waist was shaved and the skin was disinfected three times with iodophor and 70% ethanol. After the skin was dried, the operation was started. Surgical knife was used to make a longitudinal incision at the back of the sacrum of the animal waist to expose the left paraspinal muscles, and distractor was used to separate muscle tissue to expose the spine. The left spinal nerves L5 and L6 were separated and ligated with a 6-0 silk thread, and the wound was sutured. […]
The animals were weighed to calculate the dosage. […] During the test, rapid paw withdrawal of animal was recorded as pain response. When the test fiber was removed from animal skin, the paw withdrawal of animal was also recorded as pain response. If animal moved or walked, the pain response was not recorded and the test was repeated. […]
Mechanical hyperalgesia was expressed as paw withdrawal threshold (PWT) in rat behavioral test, which was calculated with the following formula: 50% response threshold (g)=(10^(Xf+k))/10,000; • Xf=the final test fiber value used in the test; • k=table value; • =mean difference

T1 sequence (Q7Z2W7 whole entry, species assumed): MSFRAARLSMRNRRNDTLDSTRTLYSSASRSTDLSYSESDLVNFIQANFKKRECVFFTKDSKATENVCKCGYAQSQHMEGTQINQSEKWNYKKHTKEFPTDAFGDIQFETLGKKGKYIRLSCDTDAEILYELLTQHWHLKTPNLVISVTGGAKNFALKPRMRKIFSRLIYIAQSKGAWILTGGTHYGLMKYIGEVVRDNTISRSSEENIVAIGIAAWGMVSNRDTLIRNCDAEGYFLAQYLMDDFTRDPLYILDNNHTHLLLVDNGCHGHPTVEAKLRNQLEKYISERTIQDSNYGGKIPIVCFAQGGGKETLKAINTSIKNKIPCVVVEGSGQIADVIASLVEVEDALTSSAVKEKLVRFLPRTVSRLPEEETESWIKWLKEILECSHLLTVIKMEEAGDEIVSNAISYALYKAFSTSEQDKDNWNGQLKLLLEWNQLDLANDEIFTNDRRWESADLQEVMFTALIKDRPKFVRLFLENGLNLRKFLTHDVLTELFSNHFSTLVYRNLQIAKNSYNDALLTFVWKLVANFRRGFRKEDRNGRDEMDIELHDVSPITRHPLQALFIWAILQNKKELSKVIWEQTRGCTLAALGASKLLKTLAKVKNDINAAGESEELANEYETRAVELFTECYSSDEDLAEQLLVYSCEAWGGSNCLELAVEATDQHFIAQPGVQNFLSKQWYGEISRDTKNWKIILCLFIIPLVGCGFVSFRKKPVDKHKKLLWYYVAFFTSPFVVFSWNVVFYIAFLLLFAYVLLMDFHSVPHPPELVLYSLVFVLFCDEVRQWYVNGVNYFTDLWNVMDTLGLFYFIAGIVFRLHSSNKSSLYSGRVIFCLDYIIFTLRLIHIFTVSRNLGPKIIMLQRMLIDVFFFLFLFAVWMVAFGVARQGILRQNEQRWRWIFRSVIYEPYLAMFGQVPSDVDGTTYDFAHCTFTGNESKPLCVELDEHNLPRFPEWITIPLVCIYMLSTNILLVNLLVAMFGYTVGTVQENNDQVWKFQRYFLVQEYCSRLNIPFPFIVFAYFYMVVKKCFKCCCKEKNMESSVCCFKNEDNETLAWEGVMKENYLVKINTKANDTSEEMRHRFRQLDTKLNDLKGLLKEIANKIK

Broadly, the inhibition is the share of the control response that was lost under treatment. Read a low inhibition as a weak effect. The IC50 is the concentration that gives 50% inhibition. `CNCC[C@H](Oc1cccc2ccoc12)c1cccs1` [IC-1, (S)-3-(Benzofuran-7-yloxy)-N-methyl-3-(thiophen-2-yl)propan-1-amine]: the inhibition at 10 µM worked out at 41.1% in assay [1] (10.00 μM, HEK293, menthol-induced current) and 4.68% in assay [2]. In addition, the IC50 in assay [1] (read-out: IC50 of the compound to TRPM8) was greater than 10 µM. Besides, the “PWT” value in assay [3] was 7.869 ± 2.846 g.
